Test results: ChEMBL document CHEMBL1909046, “DrugMatrix in vitro pharmacology data”

Assays:
Glucocorticoid receptor = biological target: T1, Glucocorticoid receptor (Homo sapiens, UniProt P04150); conditions: hela s3; note: in other assays of this panel Not Active means under 50% inhibition at 10 µM
T1 sequence (P04150 whole entry): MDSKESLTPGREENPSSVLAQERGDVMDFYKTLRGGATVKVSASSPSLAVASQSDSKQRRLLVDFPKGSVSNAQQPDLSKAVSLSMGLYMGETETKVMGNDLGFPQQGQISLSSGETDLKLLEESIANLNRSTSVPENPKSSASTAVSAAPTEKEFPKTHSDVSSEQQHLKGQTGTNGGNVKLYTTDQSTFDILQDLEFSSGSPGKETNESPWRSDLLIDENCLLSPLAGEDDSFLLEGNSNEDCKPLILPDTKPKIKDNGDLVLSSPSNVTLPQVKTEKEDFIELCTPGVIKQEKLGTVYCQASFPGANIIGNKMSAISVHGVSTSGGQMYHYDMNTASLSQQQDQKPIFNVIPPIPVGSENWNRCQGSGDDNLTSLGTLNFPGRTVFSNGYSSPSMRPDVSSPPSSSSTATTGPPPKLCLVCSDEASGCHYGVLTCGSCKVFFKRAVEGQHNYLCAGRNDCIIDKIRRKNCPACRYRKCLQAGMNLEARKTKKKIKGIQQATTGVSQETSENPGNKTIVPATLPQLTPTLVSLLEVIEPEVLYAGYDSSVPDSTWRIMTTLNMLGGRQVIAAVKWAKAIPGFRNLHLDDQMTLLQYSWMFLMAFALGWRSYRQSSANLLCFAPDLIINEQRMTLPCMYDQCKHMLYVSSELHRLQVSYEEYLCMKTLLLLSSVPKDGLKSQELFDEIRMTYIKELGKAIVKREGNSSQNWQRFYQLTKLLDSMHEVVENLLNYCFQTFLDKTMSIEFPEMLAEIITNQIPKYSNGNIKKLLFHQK

[1] = biological target: Beta-3 adrenergic receptor (Homo sapiens, UniProt P13945); experiment: DRUGMATRIX: Adrenergic beta3 radioligand binding (ligand: [125I] Cyanopindolol); format: cell membranes, HEK293, Membrane; conditions: hek293; Not Active = under 50% inhibition at 10 µM
Sequence of Beta-3 adrenergic receptor (P13945 whole entry): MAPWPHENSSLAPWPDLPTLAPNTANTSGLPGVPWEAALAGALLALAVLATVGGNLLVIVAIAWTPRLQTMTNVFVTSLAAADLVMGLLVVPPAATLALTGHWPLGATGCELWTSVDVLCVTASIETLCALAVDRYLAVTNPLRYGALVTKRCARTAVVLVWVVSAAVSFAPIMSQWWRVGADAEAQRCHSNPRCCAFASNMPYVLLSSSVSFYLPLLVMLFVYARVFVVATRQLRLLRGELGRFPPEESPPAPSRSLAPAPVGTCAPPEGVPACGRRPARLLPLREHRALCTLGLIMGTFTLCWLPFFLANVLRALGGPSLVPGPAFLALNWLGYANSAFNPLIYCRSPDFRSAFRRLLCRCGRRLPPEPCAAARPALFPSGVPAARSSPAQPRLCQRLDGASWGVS

Glycine receptor = Glycine receptor (Rattus norvegicus, UniProt P22771+P24524+P07727+P20781); format: cell membranes, Wistar, Spinal cord, Membrane; note: in other assays of this panel Not Active means under 50% inhibition at 10 µM
Carbonic anhydrase 2 = Carbonic anhydrase 2 (Homo sapiens, UniProt P00918); experiment: DRUGMATRIX: Carbonic Anhydrase II enzyme inhibition (substrate: 4-Nitrophenyl acetate (4-NPA)); format: tissue-based, Erythrocyte; conditions: erythrocyte; Not Active = under 50% inhibition at 10 µM
[2] = DRUGMATRIX: Imidazoline I2, Central radioligand binding (ligand: [3H] Idazoxan); format: cell membranes, Rattus norvegicus, Wistar, Cerebral cortex, Membrane; conditions: Not Active = under 50% inhibition at 10 µM
[3] = biological target: C-C chemokine receptor type 5 (Homo sapiens, UniProt P51681); format: cell membranes, Membrane; conditions: hek293; note: in other assays of this panel Not Active means under 50% inhibition at 10 µM
Sequence of C-C chemokine receptor type 5 (P51681 whole entry): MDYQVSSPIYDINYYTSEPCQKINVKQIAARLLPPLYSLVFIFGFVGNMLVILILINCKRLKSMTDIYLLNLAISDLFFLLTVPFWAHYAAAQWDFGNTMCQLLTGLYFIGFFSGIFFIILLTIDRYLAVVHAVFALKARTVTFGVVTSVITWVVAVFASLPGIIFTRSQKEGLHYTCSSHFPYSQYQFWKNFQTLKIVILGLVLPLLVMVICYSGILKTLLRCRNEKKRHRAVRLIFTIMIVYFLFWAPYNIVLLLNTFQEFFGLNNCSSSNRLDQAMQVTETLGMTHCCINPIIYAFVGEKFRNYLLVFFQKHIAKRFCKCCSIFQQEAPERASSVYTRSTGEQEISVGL

[4] = DRUGMATRIX: Calcium Channel Type L, Dihydropyridine radioligand binding (ligand: [3H] Nitrendipine); format: cell membranes, Rattus norvegicus, Wistar, Cerebral cortex, Membrane; conditions: Not Active = under 50% inhibition at 10 µM
[5] = biological target: 5-hydroxytryptamine receptor 6 (Homo sapiens, UniProt P50406); format: cell membranes, HeLa, Membrane; conditions: hela; note: in other assays of this panel Not Active means under 50% inhibition at 10 µM
Sequence of 5-hydroxytryptamine receptor 6 (P50406 whole entry): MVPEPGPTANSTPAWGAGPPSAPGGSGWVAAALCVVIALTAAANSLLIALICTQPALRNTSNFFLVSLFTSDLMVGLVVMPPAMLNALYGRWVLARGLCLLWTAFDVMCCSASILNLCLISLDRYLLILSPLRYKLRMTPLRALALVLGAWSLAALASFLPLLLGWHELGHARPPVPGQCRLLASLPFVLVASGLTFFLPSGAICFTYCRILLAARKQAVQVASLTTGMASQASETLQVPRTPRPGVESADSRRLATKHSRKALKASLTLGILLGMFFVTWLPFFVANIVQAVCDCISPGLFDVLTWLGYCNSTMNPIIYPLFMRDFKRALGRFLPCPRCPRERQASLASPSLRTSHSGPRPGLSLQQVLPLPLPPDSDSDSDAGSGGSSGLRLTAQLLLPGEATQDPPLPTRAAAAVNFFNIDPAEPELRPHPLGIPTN

[6] = biological target: T2, Alpha-2C adrenergic receptor (Homo sapiens, UniProt P18825); experiment: DRUGMATRIX: Adrenergic Alpha-2C radioligand binding (ligand: [3H] MK-912); format: cell membranes, Sf9, Membrane; conditions: sf9
T2 sequence (P18825 whole entry): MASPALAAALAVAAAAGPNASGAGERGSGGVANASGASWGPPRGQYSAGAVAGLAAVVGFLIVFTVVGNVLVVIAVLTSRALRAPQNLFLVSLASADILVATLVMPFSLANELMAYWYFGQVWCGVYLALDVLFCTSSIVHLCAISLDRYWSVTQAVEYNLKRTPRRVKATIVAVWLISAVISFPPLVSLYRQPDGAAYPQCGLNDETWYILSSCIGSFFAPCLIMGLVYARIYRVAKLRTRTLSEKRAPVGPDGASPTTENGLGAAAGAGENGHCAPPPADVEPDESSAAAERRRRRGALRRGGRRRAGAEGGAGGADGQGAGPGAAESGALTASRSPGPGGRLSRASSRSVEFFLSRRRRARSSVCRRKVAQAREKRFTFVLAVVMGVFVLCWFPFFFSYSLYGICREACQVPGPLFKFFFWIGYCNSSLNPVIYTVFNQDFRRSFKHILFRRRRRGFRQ

[7] = biological target: Beta-1 adrenergic receptor (Homo sapiens, UniProt P08588); experiment: DRUGMATRIX: Adrenergic beta1 radioligand binding (ligand: [125I] Cyanopindolol); format: cell membranes, CHO-K1, Membrane; conditions: cho-k1; Not Active = under 50% inhibition at 10 µM
Sequence of Beta-1 adrenergic receptor (P08588 whole entry): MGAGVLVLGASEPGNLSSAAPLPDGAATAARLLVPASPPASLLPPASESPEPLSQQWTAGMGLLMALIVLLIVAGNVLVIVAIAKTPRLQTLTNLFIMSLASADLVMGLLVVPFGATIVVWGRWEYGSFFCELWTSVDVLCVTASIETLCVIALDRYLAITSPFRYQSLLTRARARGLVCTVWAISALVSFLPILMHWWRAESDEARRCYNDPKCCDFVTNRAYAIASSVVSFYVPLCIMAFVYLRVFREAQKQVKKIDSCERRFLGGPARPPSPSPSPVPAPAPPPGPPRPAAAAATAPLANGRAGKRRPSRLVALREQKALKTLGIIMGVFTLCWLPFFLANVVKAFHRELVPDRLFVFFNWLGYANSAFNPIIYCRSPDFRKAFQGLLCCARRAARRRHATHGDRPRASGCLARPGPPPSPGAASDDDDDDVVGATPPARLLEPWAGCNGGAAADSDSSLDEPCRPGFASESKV

Adenosine receptor A1 = biological target: T3, Adenosine receptor A1 (Homo sapiens, UniProt P30542); format: cell membranes, CHO, Membrane; conditions: cho
T3 sequence (P30542 whole entry): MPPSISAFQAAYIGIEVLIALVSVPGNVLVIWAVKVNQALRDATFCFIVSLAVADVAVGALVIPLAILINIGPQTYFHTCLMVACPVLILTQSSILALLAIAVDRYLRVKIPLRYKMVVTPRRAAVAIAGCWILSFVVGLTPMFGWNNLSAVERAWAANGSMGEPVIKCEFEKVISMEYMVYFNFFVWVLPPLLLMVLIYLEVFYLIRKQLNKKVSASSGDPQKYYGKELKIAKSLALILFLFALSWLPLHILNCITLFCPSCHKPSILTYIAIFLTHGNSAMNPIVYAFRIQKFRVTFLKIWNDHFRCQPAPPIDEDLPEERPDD

[8] = biological target: T4, C-C chemokine receptor type 4 (Homo sapiens, UniProt P51679); format: cell membranes, Membrane; conditions: chem-1; note: in other assays of this panel Not Active means under 50% inhibition at 10 µM
T4 sequence (P51679 whole entry): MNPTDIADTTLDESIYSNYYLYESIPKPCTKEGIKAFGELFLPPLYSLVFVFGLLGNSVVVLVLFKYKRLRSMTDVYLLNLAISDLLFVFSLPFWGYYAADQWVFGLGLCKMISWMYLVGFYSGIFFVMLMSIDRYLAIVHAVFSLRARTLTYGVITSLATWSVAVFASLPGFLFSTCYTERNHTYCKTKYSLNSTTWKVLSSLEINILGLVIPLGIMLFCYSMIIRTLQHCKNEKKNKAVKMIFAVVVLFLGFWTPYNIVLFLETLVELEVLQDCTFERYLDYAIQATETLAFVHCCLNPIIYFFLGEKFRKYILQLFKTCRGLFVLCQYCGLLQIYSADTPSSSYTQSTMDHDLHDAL

CARBOPLATIN
Not Active: IC50 (Glucocorticoid receptor) | Ki (Glucocorticoid receptor) | IC50 [1] | Ki [1] | IC50 (Glycine receptor) | Ki (Glycine receptor) | IC50 (Carbonic anhydrase 2) | Ki (Carbonic anhydrase 2) | IC50 [2] | Ki [2] | IC50 [3] | Ki [3] | IC50 [4] | Ki [4] | IC50 [5] | Ki [5] | IC50 [6] | Ki [6] | IC50 [7] | Ki [7] | IC50 (Adenosine receptor A1) | Ki (Adenosine receptor A1) | IC50 [8] | Ki [8]

CISPLATIN
Not Active: IC50 (Glucocorticoid receptor) | Ki (Glucocorticoid receptor) | IC50 [1] | Ki [1] | IC50 (Glycine receptor) | Ki (Glycine receptor) | IC50 (Carbonic anhydrase 2) | Ki (Carbonic anhydrase 2) | IC50 [2] | Ki [2] | IC50 [3] | Ki [3] | IC50 [4] | Ki [4] | IC50 [5] | Ki [5] | IC50 [6] | Ki [6] | IC50 [7] | Ki [7] | IC50 (Adenosine receptor A1) | Ki (Adenosine receptor A1) | IC50 [8] | Ki [8]

GOLD SODIUM THIOMALATE
Not Active: IC50 (Glucocorticoid receptor) | Ki (Glucocorticoid receptor) | IC50 [1] | Ki [1] | IC50 (Glycine receptor) | Ki (Glycine receptor) | IC50 (Carbonic anhydrase 2) | Ki (Carbonic anhydrase 2) | IC50 [2] | Ki [2] | IC50 [3] | Ki [3] | IC50 [4] | Ki [4] | IC50 [5] | Ki [5] | IC50 [6] | Ki [6] | IC50 [7] | Ki [7] | IC50 (Adenosine receptor A1) | Ki (Adenosine receptor A1) | IC50 [8] | Ki [8]

OXALIPLATIN
Not Active: IC50 (Glucocorticoid receptor) | Ki (Glucocorticoid receptor) | IC50 [1] | Ki [1] | IC50 (Glycine receptor) | Ki (Glycine receptor) | IC50 (Carbonic anhydrase 2) | Ki (Carbonic anhydrase 2) | IC50 [2] | Ki [2] | IC50 [3] | Ki [3] | IC50 [4] | Ki [4] | IC50 [5] | Ki [5] | IC50 [6] | Ki [6] | IC50 [7] | Ki [7] | IC50 (Adenosine receptor A1) | Ki (Adenosine receptor A1) | IC50 [8] | Ki [8]
